Legend:
[1] = target: cloned hERG potassium channel (Homo sapiens, UniProt Q12809); test: hERG FASTPatch assay (QPatch patch clamp); format: cell-based; conditions: hERG stably expressed in cells; 1, 3, 10 and 30 uM; room temperature; Table 3
Experimental: Human Ether-à-go-go-Related Gene (hERG) Assay
The FASTPatch® Assay (Charles River) was used to examine the in vitro effects of the compounds provided herein on the cloned hERG potassium channel encoded by the KCNHI2 gene and stably expressed in ITEK293T cells. Vehicle, test and control article formulations were prepared by diluting DMSO stock solutions in TIB-PS (HEPES-buffered physiological saline solution) and were delivered to cells via the QPatch robot pipetting system to a final concentration of 0.3% DMSO. Test compound final concentrations of 1, 3, 10 and 30 uM were applied to cells (n≥3, where n=the number of cells/concentration) in ascending order in at least three minute intervals separated by solution exchange. The positive control, 50 nM cisparide, was applied in the same manner. Cell membrane currents were recorded at room temperature with up to 48 parallel patch clamp amplifiers in the QPatch HT® or QPatch HTX® system, and only cells with validated whole-cell recordings (seal resistance ≥200 MQ and leak current ≤25% channel current) were used. Onset and block of hERG current was measured using a stimulus voltage pattern consisting of a 500 ms prepulse to −40 mV, a 2-second activating pulse to +40 mV, followed by a 2-second test pulse to −40 mV. The pulse pattern was repeated continuously at 10-second intervals from a holding potential of −80 mV. % Block={1−1/[1+([Test]/IC50)^N]}*100% Where [Test] is the concentration of test article, IC50 is the concentration of the test article producing half-maximal inhibition, N is the Hill coefficient and % Block is the percentage of current inhibited at each concentration of the test article. Nonlinear least squares fits will be solved with the Solver add-in for Excel 2000 or later (Microsoft, Redmon, WA). TurboSol analysis for test compound solubility was performed for each concentration tested using a Nephelostar reader measuring light scatter from a 635 nm laser source. Based on validation experiments, light scatter above four times the background level was considered an indication of the presence of particles in suspension.
The hERG IC50 values are provided below in Table 3.

TLR8 = target: T1, TLR8 (Homo sapiens, UniProt Q9NR97); test: TLR8 human PBMC cell-based assay; conditions: human PBMCs; TLR8 agonist Compound A 800 nM; 6 hours; cytokines (TNFa and IL12p40) in supernatant; Table 2; read-out: TLR-8 EC50
T1 construct: lymphocytes, monocytes and dendritic cells that express TLR7, TLR8 and TLR9; endogenous in cells; host or cells: cryopreserved human PBMCs from healthy donors
T1 sequence (Q9NR97 27-1041): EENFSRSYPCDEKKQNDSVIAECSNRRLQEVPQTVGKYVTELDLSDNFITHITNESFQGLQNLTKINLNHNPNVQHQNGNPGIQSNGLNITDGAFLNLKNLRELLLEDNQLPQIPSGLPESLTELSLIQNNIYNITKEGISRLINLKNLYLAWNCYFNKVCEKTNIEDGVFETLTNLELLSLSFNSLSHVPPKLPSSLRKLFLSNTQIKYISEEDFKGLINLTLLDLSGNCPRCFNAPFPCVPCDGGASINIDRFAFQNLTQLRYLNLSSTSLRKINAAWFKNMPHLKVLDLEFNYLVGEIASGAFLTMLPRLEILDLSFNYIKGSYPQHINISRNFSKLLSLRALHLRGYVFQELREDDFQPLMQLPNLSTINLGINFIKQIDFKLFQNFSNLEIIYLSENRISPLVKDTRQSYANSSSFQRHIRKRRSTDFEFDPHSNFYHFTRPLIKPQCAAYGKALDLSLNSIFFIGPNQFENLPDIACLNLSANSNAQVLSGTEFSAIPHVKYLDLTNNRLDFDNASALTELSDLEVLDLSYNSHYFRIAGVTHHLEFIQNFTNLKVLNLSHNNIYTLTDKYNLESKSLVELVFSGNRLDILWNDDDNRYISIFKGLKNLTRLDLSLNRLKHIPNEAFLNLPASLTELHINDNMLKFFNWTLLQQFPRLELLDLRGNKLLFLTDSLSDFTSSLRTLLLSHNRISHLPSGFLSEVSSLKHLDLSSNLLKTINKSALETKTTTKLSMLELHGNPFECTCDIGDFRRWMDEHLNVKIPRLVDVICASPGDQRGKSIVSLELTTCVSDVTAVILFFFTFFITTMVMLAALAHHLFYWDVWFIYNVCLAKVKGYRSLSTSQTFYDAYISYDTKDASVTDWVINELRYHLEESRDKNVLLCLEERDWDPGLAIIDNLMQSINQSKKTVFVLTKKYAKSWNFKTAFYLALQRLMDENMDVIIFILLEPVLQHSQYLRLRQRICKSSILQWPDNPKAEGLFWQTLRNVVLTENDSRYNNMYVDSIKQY
Experimental: TLR8 Human Peripheral Blood Mononuclear Cell (PBMC) Cell-Based Assay
Cryopreserved human PBMCs from healthy donors were thawed and resuspended in RPMI-1640 media with L-glutamine (Corning) supplemented with 10% Fetal Bovine Serum (Hyclone) and 1× Penicillin-Streptomycin (Corning). After counting, the cell density was adjusted to 2 million cells/ml and incubated for 1 hour at 37° C., 5% CO2 for recovery. Following the recovery, the cells were plated by adding 50p per well (100,000 cells) to 384-well cell culture plates (Greiner) containing 250 nl of test antagonists in 100% DMSO per well, in a 10 points dose response in quadruplicates. PBMCs were incubated in the presence of antagonists for one hour at 37° C., 5% CO2 before being stimulated with TLR8 agonist. Compound A (Gilead Sciences, U.S. Pat. No. 10,285,990) was used as the TLR8 agonist at a final concentration of 800 nM. PBMCs were incubated in the presence of antagonist and the TLR8 agonist for an additional 6 hours at 37° C., 5% CO2. At the end of the incubation, the cell culture plates were centrifuged at 500 g for 5 min, and the cell culture supernatant was collected. The level of cytokines (TNFa and IL12p40) in the supernatant was measured by electrochemiluminescence immunoassays (Mesoscale Discovery) following manufacturer's recommended protocols. The level of cytokine measured was plotted against the antagonist concentration and fitted to a sigmoidal function to determine the EC50, which are shown below in Table 2.

Sequence of cloned hERG potassium channel (Q12809 whole entry): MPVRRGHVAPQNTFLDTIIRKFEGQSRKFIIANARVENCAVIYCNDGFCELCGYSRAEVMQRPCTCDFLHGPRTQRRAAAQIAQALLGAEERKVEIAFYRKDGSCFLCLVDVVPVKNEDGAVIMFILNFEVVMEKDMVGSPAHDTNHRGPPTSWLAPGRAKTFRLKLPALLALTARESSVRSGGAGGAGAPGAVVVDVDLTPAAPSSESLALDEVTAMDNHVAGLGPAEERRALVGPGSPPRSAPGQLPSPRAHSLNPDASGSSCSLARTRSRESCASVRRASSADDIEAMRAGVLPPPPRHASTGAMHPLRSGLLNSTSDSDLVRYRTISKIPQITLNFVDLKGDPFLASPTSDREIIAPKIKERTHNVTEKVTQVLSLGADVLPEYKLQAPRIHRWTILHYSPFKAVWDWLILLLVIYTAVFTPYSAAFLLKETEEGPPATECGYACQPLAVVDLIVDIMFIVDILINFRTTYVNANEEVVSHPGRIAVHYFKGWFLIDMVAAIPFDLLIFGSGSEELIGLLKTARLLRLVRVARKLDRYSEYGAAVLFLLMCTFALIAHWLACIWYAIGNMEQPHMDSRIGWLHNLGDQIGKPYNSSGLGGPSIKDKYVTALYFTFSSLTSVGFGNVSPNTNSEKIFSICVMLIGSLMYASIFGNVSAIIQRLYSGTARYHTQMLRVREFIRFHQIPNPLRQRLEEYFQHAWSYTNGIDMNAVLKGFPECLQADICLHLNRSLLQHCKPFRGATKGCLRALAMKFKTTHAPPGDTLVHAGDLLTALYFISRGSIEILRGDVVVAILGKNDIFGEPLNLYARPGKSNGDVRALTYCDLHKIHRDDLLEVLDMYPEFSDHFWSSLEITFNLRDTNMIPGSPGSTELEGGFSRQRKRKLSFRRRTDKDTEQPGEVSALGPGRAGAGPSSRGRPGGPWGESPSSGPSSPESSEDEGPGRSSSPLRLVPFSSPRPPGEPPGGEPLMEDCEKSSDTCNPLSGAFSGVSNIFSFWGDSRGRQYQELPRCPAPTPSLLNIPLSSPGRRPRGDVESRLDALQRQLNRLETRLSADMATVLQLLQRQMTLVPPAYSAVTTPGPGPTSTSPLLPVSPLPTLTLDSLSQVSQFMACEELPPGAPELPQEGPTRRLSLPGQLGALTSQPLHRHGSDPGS

| SMILES | EC50 (TLR8) [nM] | IC50 [1] [nM] |
| --- | --- | --- |
| Cc1cc(-c2[nH]c3ccc(-c4ccc(N5CCNCC5)nc4)cc3c2C(C)C)cn2ncnc12 [Example B, reference compound] | – | 5100 |
| Cc1cc(-c2ccc3c(C)c(-c4ccc(N5CCNCC5)nc4)[nH]c3c2)cc(C)n1 [Example 2, 6-(2,6-dimethylpyridin-4-yl)-3-methyl-2-(6-(piperazin-1-yl)pyridin-3-yl)-1H-indole] | 307 | 7000 |
| Cc1cc(-c2[nH]c3ccc(-c4ccc(N5CCNCC5)nc4)cc3c2C(C)C)cc(C)n1 [Example A, reference compound] | – | 4500 |
| Cc1cc(-c2ccc3c(C)c(-c4cnc(N5CCNCC5)nc4)[nH]c3c2)cc(C)n1 [Example 1, 6-(2,6-dimethylpyridin-4-yl)-3-methyl-2-(2-(piperazin-1-yl)pyrimidin-5-yl)-1H-indole] | 318 | – |

Now from value to compound, other results behind:

| EC50 (TLR8) [nM] | SMILES | IC50 [1] [nM] |
| --- | --- | --- |
| 18.2 | Cc1c(-c2ccc(N3CCNCC3)nc2)[nH]c2cc(-c3cc(C)c4ncnn4c3)ccc12 [Example 4] | 15500 |
| 21.5 | Cc1c(-c2ccc(N3CCNCC3)nc2)[nH]c2cc(-c3ccc(C#N)c4ncccc34)ccc12 [Example 7] | – |
| 34.7 | CCc1c(-c2ccc(N3CCNCC3)nc2)[nH]c2cc(-c3cc(C)c4ncnn4c3)ccc12 [Example 23] | – |
